Laboratory results as given in US20160158245A1, “PHARMACEUTICAL FORMULATION CONTAINING THIENOTRIAZOLODIAZEPINE COMPOUNDS” (ONCOETHIX GmbH, priority 2013, published 2016).

Experiments:
Format in all cases: cell-based
[1] = test system: BV-173; test: MTT assay; settings: Homo sapiens; BV-173, MTT at 72 h
Procedure: (§1) Different representative cell lines for ALL including Jurkat cells (T-ALL), RS 4-11 (MLL-AF4 B-precursor ALL), TO′M-1, BV173 (both Ph+ALL) and AML including K562 (Ph+CML in blast crisis,), HL-60 (NRAS driven AML2), NOMO1 (MLL-AF9 driven AML), KG1 (BMP-FGRF+AML6) and its more immature subtype KG1a were cultured in RPMI 1640 (Gibco Invitrogen, Basel, Switzerland) supplemented with 10% or 20% heat-inactivated fetal calf serum respectively, 2 mM L-glutamine, 100 IU/mL penicillin, and 100 µg/mL streptomycin.
(§2) MTT-assay: cells were seeded first into 24-well plates at the density of […] per well to avoid variations of concentrations in smaller volumes and treated with different doses of OTX015 prepared freshly from 1 mM stock solution in DMSO. Cells were transferred to 96-well plates for MTT-assay. Untreated cells and cells treated with equal amounts of DMSO (0.2-1%) used for dilution of OTX015 were used as controls. The 3-(4,5-dimethylthiazol-2-yl)-2,5-diphenyltetrazolium bromide (MTT) (Molecular Probes, Eugene, USA) was prepared as a stock of 5 mg/ml in PBS. 0.5 mg/mL of MTT solution was then added per well and incubated in the dark at 37° C. for 4 h. Cells were then lysed with 25% SDS lysis buffer and absorbance was read at 570 nm. Two independent experiments were run for each cell line. GI50 values were calculated with Prism v5 software (GraphPad Inc., La Jolla, USA).
(§3) AML and ALL cell lines were exposed to increasing concentrations of compound (1-1), (0.1 nM-10 μM). […] GI50 values were expressed as means from 3 independent experiments.

[2] = test system: HL60; test: MTT assay; settings: Homo sapiens, HL-60, HL60, MTT at 72 h
Procedure: as §1, §2, §3

[3] = test system: Jurkat; test: MTT assay; settings: Homo sapiens, MTT at 72 h
Procedure: as §1, §2, §3

[4] = test system: K562; test: MTT assay; settings: Homo sapiens, K562, 72 h, K562, MTT at 72 h
Procedure: as §1, §2, §3

[5] = test system: KG1a; test: MTT assay; settings: Homo sapiens, KG-1a, MTT at 72 h
Procedure: as §1, §2, §3

[6] = test system: KG1; test: MTT assay; settings: Homo sapiens, KG-1; KG1, MTT at 72 h
Procedure: as §1, §2, §3

[7] = test system: NOMO1; test: MTT assay; settings: Homo sapiens, NOMO-1; NOMO1, MTT at 72 h
Procedure: as §1, §2, §3

[8] = test system: RS4-11; test: MTT assay; settings: Homo sapiens; RS4-11, MTT at 72 h
Procedure: as §1, §2, §3

[9] = test system: TOM-1; test: MTT assay; settings: TOM-1, MTT at 72 h
Procedure: as §1, §2, §3

[10] = test system: HL60; test: Apoptosis assessment (annexin V/PI flow cytometry)
Procedure: (§4) a total of 1×10^6 cellsderived from patients or cell lines were resuspended in 1 mL culture medium and incubated with the indicated dosages of OTX015 prepared freshly from 1 mM stock solution in DMSO. Control cells were incubated with the corresponding amount of dimethyl sulfoxide (DMSO 0.2-1%) to exclude toxicity of the excipient. Apoptotic cells were detected by cytofluorometric analysis using a FACScan (Becton Dickinson, Mountain View, USA). Cells were stained with propidium iodide (PI; 5 μg/mL; Becton Dickinson) and concomitantly for 15 minutes at RT with annexin-V-FITC (Becton Dickinson) according to the manufacturer's instructions to determine outer membrane phosphatidyl serine exposure. Data were analyzed with the Flowjo (Tree Star Inc., Ashland, USA) flow cytometry software.

[11] = test system: Jurkat; test: Apoptosis assessment (annexin V/PI flow cytometry)
Procedure: as §4

[12] = test system: K562; test: Apoptosis assessment (annexin V/PI flow cytometry)
Procedure: as §4

[13] = test system: KG1a; test: Apoptosis assessment (annexin V/PI flow cytometry); settings: 96 hours at 10 nM
Procedure: as §4

[14] = test system: KG1; test: Apoptosis assessment (annexin V/PI flow cytometry)
Procedure: as §4

[15] = test system: RS4-11; test: Apoptosis assessment (annexin V/PI flow cytometry); settings: RS4-11, 96 hours at 10 nM
Procedure: as §4

[16] = test system: TOM-1; test: Apoptosis assessment (annexin V/PI flow cytometry); settings: TOM-1, 96 hours at 10 nM
Procedure: as §4

[17] = test system: Ph+ALL patient cells; test: Apoptosis in primary patient cells treated ex vivo; settings: 1 Ph+ ALL patient sample ex vivo, 72 h, 250 and 500 nM
Procedure: FIGS. 44A-44D show effects of OTX015 on primary patient cells. 5 samples from AML patients and 2 ALL, including 1 ALL Ph+ patient, were treated ex vivo with OTX015. OTX015 induced apoptosis in primary AML patient samples at various degrees ranging from 35-85% (FIG. 6). The Ph+ALL patient appeared to be resistant. OTX015 induced apoptosis in primary cells of the AML and ALL patients. Mononuclear cells were obtained from bone marrow (BM) or peripheral blood (PB) from AML and ALL patients. Cells were exposed 72 h with 250 and 500 nM of OTX015 and apoptosis was assessed by annexin V and PI staining. Results are shown with means±SD from duplicates of one experiment.
Mononuclear cells (MNC) from the bone marrow (BM) were isolated by Ficoll-Paque PLUS density gradient (Amersham Biosciences, Sunnyvale, USA). Patient cells were maintained in IMDM (Gibco) supplemented with 10% heat-inactivated fetal calf serum, 2 mM L-glutamine, 100 IU/mL penicillin, and 100 µg/mL streptomycin without growth factors.
a total of 1×10^6 cellsderived from patients or cell lines were resuspended in 1 mL culture medium and incubated with the indicated dosages of OTX015 prepared freshly from 1 mM stock solution in DMSO. […] Apoptotic cells were detected by cytofluorometric analysis using a FACScan (Becton Dickinson, Mountain View, USA). […] Data were analyzed with the Flowjo (Tree Star Inc., Ashland, USA) flow cytometry software. […]

[18] = test system: BRD2, BRD3, BRD4 and c-MYC; test: Immunoblot of BRD proteins and c-MYC in leukemia cell lines; settings: different leukemia cell lines, 100 nM, within 3 hours

GI50 [2]: 1310 nM
IC50 ([2]; read-out: GI value): 1300 nM
GI50 [3]: 250 nM
GI50 [4]: 11300 nM
GI50 ([4]; mean of 3 independent experiments): 11300 nM
GI50 [8]: 34.2 nM
Compound: Cc1sc2c(c1C)C(c1ccc(Cl)cc1)=N[C@@H](CC(=O)Nc1ccc(O)cc1)c1nnc(C)n1-2 [Compound (1-1), 2-[(6S)-4-(4-chlorophenyl)-2,3,9-trimethyl-6H-thienol[3,2-f]-[1,2,4]triazolo[4,3-a][1,4]diazepin-6-yl]-N-(4-hydroxyphenyl)acetamide dihydrate]
GI50 [1]: 161 nM
GI50 [5]: 1340 nM
IC50 ([5]; read-out: GI value): 1300 nM
GI50 [6]: 198 nM
GI50 [7]: 229 nM
GI50 [9]: 133 nM
delayed apoptosis after drug washout ([10]; HL60, 6 hours exposure, read at 96 hours): significant delayed apoptosis
apoptosis ([10]; HL60, 96 hours at 10 nM): > 90%
delayed apoptosis after drug washout ([11]; 6 hours exposure, read at 96 hours): significant delayed apoptosis
apoptosis ([11]; 96 hours at 10 nM): > 90%
delayed apoptosis after drug washout ([12]; K562, 6 hours exposure, read at 96 hours): but not in the less sensitive K562
apoptosis ([12]; K562, 96 hours at 10 nM): 20%
apoptotic cells ([12]; K562, at 24 hours): 20%
apoptosis [13]: 45%
induction of apoptosis at lower dose ([14]; KG1, 10 nM, 72 hours): induced apoptosis after prolonged incubation
apoptosis ([14]; KG1, 96 hours at 10 nM): > 90%
apoptosis [15]: 30%
apoptosis [16]: 70%
sensitivity to apoptosis induction [17]: resistant
regulation of BRD2, BRD3, BRD4 and c-MYC at the protein level [18]: rapid down-regulation of BRD2, BRD3 and BRD4 associated with c-MYC down-regulation
